In brackets after ≈: the same amount, converted by molar mass.
Legend:
[1] = test system: Mycobacterium tuberculosis H37Rv; test: Activity test for Mycobacterium tuberculosis (MIC, H37Rv); assay type: cell-based; conditions: for MIC: Mycobacterium tuberculosis H37Rv, liquid medium, 37° C., read-out: Minimum inhibitory concentration against H37Rv; for anti Mycobacterium tuberculosis activity (MIC against H37Rv), times of that of PA-824: relative to PA-824; for anti Mycobacterium tuberculosis activity (MIC against H37Rv), times of that of ethambutol: relative to ethambutol
Protocol: The tested strain H37Rv was transferred to liquid medium and cultured for 2 weeks at 37° C.; a small amount of the cultured bacterial solution was pipetted and placed in 4 mL of liquid medium; 10-20 sterile glass beads with a diameter of 2-3 mm were added; the mixture was shaken for 20-30 s and left to sediment for 10-20 min; the supernatant of the bacterial suspension was pipetted and adjusted to a turbidity of 1 MCF (equivalent to 1×10^7 CFU/mL) with the liquid medium for use. Each drug was dissolved to 1 mg/mL with an appropriate amount of DMSO and filtered with a 0.22 μm filter. Then, the solution was diluted to a desired experimental concentration with the liquid medium. The final concentrations of the tested drugs were set as follows: 0.001 μg/mL, 0.002 μg/mL, 0.0039 μg/mL, 0.0078 μg/mL, […], 0.03125 μg/mL, 0.0625 μg/mL, 0.125 μg/mL, 0.25 μg/mL, 0.5 μg/mL and 1 μg/mL, a total of 11 concentration gradients. 100 μL of each of the above-mentioned drug solutions was added to a 96-well microwell plate, then 100 μL bacterial solution with a concentration of 1 mg/mL was added to allow the drug concentration to reach the final set concentration, and cultured at 37° C. Three groups in parallel were set for each drug dilution with inoculation amounts of 100%, 10% and 1%, respectively, while no drug was added to the control group.

[2] = Drug metabolism test (pharmacokinetics, oral, mice); assay type: in vivo, ICR mice; conditions: 10 mg/kg; for AUC(0-inf) / AUC(0-t) / Cmax / MRT / Tmax / half-life: male, ICR, mouse, po, orally (intragastric), plasma
Protocol: 18 healthy male ICR mice with a body weight of 18-22 g were administered drugs by intragastric administration, with an administration dose of 10 mg/kg and an administration volume of 10 mL/kg, respectively. These mice were fasted for 12 h before the test and had free access to drinking water. These mice were fed 2 h after administration uniformly. 0.3 mL of blood was taken from the postocular venous plexus of a mouse at the set time points, placed in a heparinized test tube and centrifuged for 10 min at 3000 rpm; and plasma was separated and frozen in a refrigerator at −20° C. When measured, the sample was treated through the method for treating the plasma sample, and the drug concentration in plasma was determined by LC-MS/MS and the pharmacokinetic parameters of the drug were calculated.

[3] = physchem; assay type: physicochemical; conditions: pH 1.2, simulated gastric fluid, thermodynamic from solid, Solubility
Protocol: 3-5 mg of compound to be tested was added to 0.5 mL of aqueous HCl solution (pH=1.2) and the mixture was shaken for three days on a shaker; the sample was centrifuged for 5 min at 10,000 rpm in a centrifuge; a volumetric flask (50 mL) was loaded with 2 mL of supernatant and water was added to a volume at the graduation mark to prepare a sample solution; and 2.6 mg of sample was precisely weighed into a volumetric flask (50 mL), an appropriate amount of methanol was added to dissolve the sample, and water was added to a volume at the graduation mark and shaken well to give a control sample solution. 20 μL of sample solution and control sample solution were each injected, and tested by liquid chromatography. The solubility was calculated as follows:
Solubility (mg/mL)=C (control)*25*A (sample)/A (control)
C (control): concentration of the control sample
A (sample): peak area of the liquid chromatogram of the sample solution
A (control): peak area of the liquid chromatogram of the control sample solution

SMILES | MIC [1] | AUC(0-inf) [2] | AUC(0-t) [2] | Cmax [2] | MRT [2] | Tmax [2] | half-life [2] | pharmacokinetic properties (in words) ([2]; orally, judgement on Table 6) | solubility at 3 days [3] | anti Mycobacterium tuberculosis activity (MIC against H37Rv), times of that of PA-824 [1] | anti Mycobacterium tuberculosis activity (MIC against H37Rv), times of that of ethambutol [1]
O=[N+]([O-])c1cn2c(n1)OC[C@@H](NCc1ccc(N3CC4CN(c5ccc(OC(F)(F)F)cc5)CC4C3)nc1)C2 (stereo partly drawn) [Compound 11, (6S)-2-nitro-N-((6-(5-(4-(trifluoromethoxy)phenyl)hexahydropyrrolo[3,4-c]pyrrol-2(1H)-yl)pyrid-3-yl)methyl)-6,7-dihydro-5H-imidazo[2,1-b][1,3]oxazin-6-amine] | 0.0312 µg/mL (≈ 0.0573 µM) |  |  |  |  |  |  |  |  |  | 
O=[N+]([O-])c1cn2c(n1)OC[C@@H](NCc1ccc(N3CCC(Oc4ccc(OC(F)(F)F)cc4)C(F)C3)nc1)C2 (stereo partly drawn) [Compound 3, (6S)—N-((6-(3-fluoro-4-(4-(trifluoromethoxy)phenoxy)piperidin-1-yl)pyrid-3-yl)methyl)-2-nitro-6,7-dihydro-5H-imidazo[2,1-b][1,3]oxazin-6-amine] | 0.0156 µg/mL (≈ 0.0282 µM) |  |  |  |  |  |  |  |  |  | 
O=[N+]([O-])c1cn2c(n1)OC[C@@H](NCc1ccc(N3CCC(Oc4ccc(OC(F)(F)F)cc4)CC3)nc1)C2 [Compound 1, (S)-2-nitro-N-((6-(4-(4-(trifluoromethoxy)phenoxy)piperidin-1-yl)pyrid-3-yl)methyl)-6,7-dihydro-5H-imidazo[2,1-b][1,3]oxazin-6-amine] | 0.0078 µg/mL (≈ 0.0146 µM) | 32300 ng·h/mL | 31300 ng·h/mL | 2670 ng/mL | 6.64 h | 2.33 h | 4.76 h | excellent | 784 µg/mL (≈ 1470 µM) | 8 times | 64 times
O=[N+]([O-])c1cn2c(n1)OC[C@@H](NCc1cnc(N3CCC(Oc4ccc(OC(F)(F)F)cc4)CC3)nc1)C2 [Compound 15] | 0.0312 µg/mL (≈ 0.0584 µM) |  |  |  |  |  |  |  |  |  | 
CC[C@@H](CO)NCCN[C@@H](CC)CO [Ethambutol, reference compound] | 0.5 µg/mL (≈ 2.45 µM) |  |  |  |  |  |  |  |  |  | 
N#CC1(c2ccc(OC(F)(F)F)cc2)CCN(c2ncc(CN[C@@H]3COc4nc([N+](=O)[O-])cn4C3)cn2)CC1 [Compound 24, (S)-1-(5-(((7-nitro-3,4-dihydro-2H-imidazo[2,1-b][1,3]oxazin-3-yl)amino)methyl)pyrimidin-2-yl)-4-(4-(trifluoromethoxy)phenyl)piperidine-4-carbonitrile] | 0.0039 µg/mL (≈ 0.00716 µM) | 18300 ng·h/mL | 18200 ng·h/mL | 1980 ng/mL | 4.45 h | 2.17 h | 3.52 h |  | 782 µg/mL (≈ 1440 µM) | 16 times | 128 times
